System: HSV-1
Test: HSV-1 IE gene expression in HeLa cells
Format: cell-based
Conditions: 50 µM, 5 h pretreatment, HSV-1 0.1 PFU/cell for 2 h

## C[C@H](NCc1ccc(OCc2cccc(F)c2)cc1)C(N)=O [Safinamide, safinamide]
  inhibition of expression of viral IE (ICP27 and ICP4) genes: did not show substantial inhibition
